Experimental data taken from the supplement of paper PMC10307832.

Experiments:
Test in all cases: relative viability (nuclei count vs DMSO), 5 days (fraction); higher = more cells survive
Bortezomib + Dasatinib = compound: CC(C)C[C@H](NC(=O)[C@H](Cc1ccccc1)NC(=O)c1cnccn1)B(O)O [Bortezomib] + Cc1nc(Nc2ncc(C(=O)Nc3c(C)cccc3Cl)s2)cc(N2CCN(CCO)CC2)n1 [Dasatinib] (partner 0.075 µM)
Summary of the method: (§1)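 Nuclei were stained with Hoechst during a one-step fixation (final 0.05% Triton X-100, 1% formaldehyde, 1 ug/ml Hoechst) carried out 5 days after dosing, then counted on 4× images. The cells, lung cancer lines in 1536-well plates, had been dosed by pin tool the day after seeding with one drug alone or a fixed anchor-drug dose plus five library-drug doses (not always all listed) in √10 steps. Relative viability is the nuclei count in treated wells divided by that in vehicle wells, and each value is the median of duplicate plates.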

[1] = compound: CC1=CC(=NN1)NC2=CC(=NC(=N2)/C=C/C3=CC=CC=C3)N4CCN(CC4)C + CS(=O)(=O)N1CCN(Cc2cc3nc(-c4cccc5[nH]ncc45)nc(N4CCOCC4)c3s2)CC1 [Pictilisib] (partner 1 µM)
Summary of the method: as §1

[2] = compound: CC1=CC(=NN1)NC2=CC(=NC(=N2)/C=C/C3=CC=CC=C3)N4CCN(CC4)C + Nc1ncn([C@H]2C[C@H](O)[C@@H](CO)O2)c(=O)n1 [Decitabine] (partner 2 µM)
Summary of the method: as §1

Obatoclax + Olaparib = compound: COC1=CC(c2cc3ccccc3[nH]2)=N/C1=C\c1[nH]c(C)cc1C [Obatoclax] + O=C(c1cc(Cc2n[nH]c(=O)c3ccccc23)ccc1F)N1CCN(C(=O)C2CC2)CC1 [Olaparib] (partner 8 µM)
Summary of the method: as §1

Cell Line | relative viability (Bortezomib + Dasatinib; first compound 0.0002 µM) | relative viability (Bortezomib + Dasatinib; first compound 0.000632 µM) | relative viability (Bortezomib + Dasatinib; first compound 0.002 µM) | relative viability (Bortezomib + Dasatinib; first compound 0.006325 µM) | relative viability (Bortezomib + Dasatinib; first compound 0.02 µM) | relative viability ([1]; first compound 0.08 µM) | relative viability ([1]; first compound 0.253 µM) | relative viability ([1]; first compound 0.8 µM) | relative viability ([1]; first compound 2.53 µM) | relative viability ([1]; first compound 8 µM) | relative viability ([2]; first compound 0.08 µM) | relative viability ([2]; first compound 0.253 µM) | relative viability ([2]; first compound 0.8 µM) | relative viability ([2]; first compound 2.53 µM) | relative viability ([2]; first compound 8 µM) | relative viability (Obatoclax + Olaparib; first compound 0.01 µM) | relative viability (Obatoclax + Olaparib; first compound 0.03162 µM) | relative viability (Obatoclax + Olaparib; first compound 0.1 µM) | relative viability (Obatoclax + Olaparib; first compound 0.3162 µM) | relative viability (Obatoclax + Olaparib; first compound 1 µM)
201T | 0.571 | 0.607 | 0.536 | 0.589 | 0.283 | 0.668 | 0.683 | 0.67 | 0.643 | 0.607 | 0.834 | 0.864 | 0.831 | 0.785 | 0.471 | 0.873 | 0.782 | 0.838 | 0.823 | 0.831
A549 | – | – | – | – | – | 0.464 | 0.592 | 0.332 | 0.0385 | 0.0281 | 0.21 | 0.394 | 0.212 | 0.104 | 0.0286 | 0.326 | 0.367 | 0.0867 | 0.361 | 0.342
A-427 | 0.611 | 0.746 | 0.716 | 0.408 | 0.104 | 0.836 | 0.247 | 0.741 | 0.401 | 0.11 | 0.603 | 0.582 | 0.568 | 0.489 | 0.213 | 0.82 | 0.706 | 0.559 | 0.775 | 0.416
ABC-1 | 0.6 | 0.317 | 0.243 | 0.224 | 0.233 | 0.764 | 0.76 | 0.792 | 0.284 | 0.173 | 1.02 | 0.954 | 1.1 | 0.811 | 0.268 | 1.08 | 0.95 | 0.776 | 0.799 | 0.566
BEN | 0.262 | 0.408 | 0.343 | 0.246 | 0.249 | 0.622 | 0.578 | 0.598 | 0.411 | 0.193 | 0.633 | 0.835 | 0.706 | 0.381 | 0.337 | 1.03 | 1.04 | 0.864 | 0.914 | 0.942
CAL-12T | 0.538 | 0.347 | 0.53 | 0.119 | 0.0844 | 0.335 | 0.426 | 0.48 | 0.187 | 0.147 | – | – | – | – | – | 0.759 | 0.764 | 0.724 | 0.679 | 0.232
COR-L23 | 0.461 | 0.459 | 0.485 | 0.045 | 0.054 | 0.73 | 0.929 | 0.765 | 0.177 | 0.0607 | 0.511 | 0.451 | 0.392 | 0.125 | 0.113 | 0.37 | 0.352 | 0.354 | 0.248 | 0.156
COR-L 105 | 0.381 | 0.324 | 0.352 | 0.267 | 0.216 | 0.461 | 0.429 | 0.353 | 0.205 | 0.223 | 0.549 | 0.847 | 0.624 | 0.425 | 0.235 | 0.727 | 0.76 | 0.737 | 0.672 | 0.457
Calu-6 | – | – | – | – | – | 0.876 | 0.807 | 0.648 | 0.131 | 0.103 | – | – | – | – | – | 0.538 | 0.565 | 0.611 | 0.534 | 0.239
